{
  "source": "patent US4560677A",
  "about": "“Synergistic avermectin combination for treating plant pests” (Merck & Co., Inc., priority 1984, dated 1985)",
  "key": {"2-spotted spider mites [1]": {"tested_on": "2-spotted spider mites", "assay": "Contact activity on bean leaves against 2-spotted spider mites (Table X)", "format": "in vivo, Tetranychus urticae", "conditions": "for mortality at 0.015 ppm / mortality at 0.04 ppm / mortality at 0.06 ppm / mortality at 0.25 ppm: Tetranychus urticae", "method": "(§1) A solution of Triton X-155 in acetone (1000 ppm) was used to dissolve the material under test and the resultant solution was diluted with water to obtain a mixture of 10% acetone and 100 ppm of Triton X-155 in water. Further dilution of this stock solution as required in a test was done by using Triton X-155 at 100 ppm in water so that a constant ratio of the surfactant was maintained at all levels. Where emulsifiable oil was used in the treatments, the solutions were prepared in such a way that the final solutions contained 0.06% v/v of the oil.\n(§2) Leaves of Sieva bean plants grown from seeds planted 14-21 days earlier were used in all the tests. Twospotted spider mites (Tetranychus urticae) were cultured continuously on sieva bean plants growing in an insectary under continuous lighting at 75° F.\nOn day 0, eight leaves which had been infested with mites 24 hours earlier were dipped in the treatment solution. On Day 5, mortality was assessed on four of the leaves and on Day 12 on the remaining four leaves."}, "2-spotted spider mites [2]": {"tested_on": "2-spotted spider mites", "assay": "Residual activity on bean leaves against 2-spotted spider mites (Table X)", "format": "in vivo", "conditions": "Tetranychus urticae", "method": "as §1, §2\nOn Day 0, eight uninfested leaves were treated by immersion in the treatment solution. On Day 7, all the leaves were infested with a mixed population of mites. On Day 13, mortality was assessed on four of the leaves and on Day 19 on the remaining four leaves."}, "citrus rust mites": {"tested_on": "citrus rust mites", "assay": "Field experiment, citrus rust mite on pink grapefruit in Florida (Table XI)", "format": "in vivo, Phyllocoptruta oleivora", "method": "Citrus (pink grapefruit) trees (which were 5-7 years old) infested with citrus rust mites (Phyllocoptrura oleivora) were sprayed using a hydraulic handgun at 250 psi. Each tree was sprayed until runoff.\nEach treatment consisted of three replicates. Thirty-three leaves from each tree were evaluated for percent leaf area not infested by mites. These evaluations were done before the application of treatments and 7 and 14 days after the application of treatments."}, "[3]": {"conditions": "120 h, read-out: mortality, adults"}, "[4]": {"conditions": "288 h, read-out: mortality, adults"}, "[5]": {"conditions": "288 h, read-out: mortality, larvae"}, "[6]": {"conditions": "288 h, read-out: mortality, nymphs"}, "[7]": {"conditions": "144 h, read-out: mortality, adults"}, "[8]": {"conditions": "144 h, read-out: mortality, nymphs"}},
  "note": "Read-outs that look alike come from different tables or passages of the source.",
  "data": [
    {"smiles": "CC1=C[C@H]2C(=O)O[C@H]3C[C@@H](C/C=C(\\C)C[C@@H](C)/C=C/C=C4\\CO[C@H]([C@@H]1O)[C@@]42O)O[C@@]1(CC[C@H](C)[C@@H](C(C)C)O1)C3", "note": "[Milbemycin B-41D, 13-deoxy-22,23-dihydro avermectin B1b aglycone]", "values": [
      {"measurement": "mortality at 0.015 ppm", "setting": "2-spotted spider mites [1]; [3]", "result": 66, "unit": "%"},
      {"measurement": "mortality at 0.04 ppm", "setting": "2-spotted spider mites [1]; [3]", "result": 79, "unit": "%"},
      {"measurement": "mortality at 0.06 ppm", "setting": "2-spotted spider mites [1]; [3]", "result": 92, "unit": "%"},
      {"measurement": "mortality at 0.25 ppm", "setting": "2-spotted spider mites [1]; [3]", "result": 100, "unit": "%"},
      {"measurement": "mortality at 0.015 ppm", "setting": "2-spotted spider mites [1]; [4]", "result": 0, "unit": "%"},
      {"measurement": "mortality at 0.04 ppm", "setting": "2-spotted spider mites [1]; [4]", "result": 0, "unit": "%"},
      {"measurement": "mortality at 0.06 ppm", "setting": "2-spotted spider mites [1]; [4]", "result": 38, "unit": "%"},
      {"measurement": "mortality at 0.25 ppm", "setting": "2-spotted spider mites [1]; [4]", "result": 43, "unit": "%"},
      {"measurement": "mortality at 0.015 ppm", "setting": "2-spotted spider mites [1]; [5]", "result": 0, "unit": "%"},
      {"measurement": "mortality at 0.04 ppm", "setting": "2-spotted spider mites [1]; [5]", "result": 0, "unit": "%"},
      {"measurement": "mortality at 0.06 ppm", "setting": "2-spotted spider mites [1]; [5]", "result": 91, "unit": "%"},
      {"measurement": "mortality at 0.25 ppm", "setting": "2-spotted spider mites [1]; [5]", "result": 100, "unit": "%"},
      {"measurement": "mortality at 0.015 ppm", "setting": "2-spotted spider mites [1]; [6]", "result": 0, "unit": "%"},
      {"measurement": "mortality at 0.04 ppm", "setting": "2-spotted spider mites [1]; [6]", "result": 0, "unit": "%"},
      {"measurement": "mortality at 0.06 ppm", "setting": "2-spotted spider mites [1]; [6]", "result": 56, "unit": "%"},
      {"measurement": "mortality at 0.25 ppm", "setting": "2-spotted spider mites [1]; [6]", "result": 67, "unit": "%"},
      {"measurement": "potency in short term contact studies", "setting": "2-spotted spider mites [1]; avermectin B1a/B1b versus milbemycin B-41D", "result": "comparable potency"},
      {"measurement": "mortality at 0.25 ppm", "setting": "2-spotted spider mites [2]; [7]", "result": 0, "unit": "%"},
      {"measurement": "mortality at 1 ppm", "setting": "2-spotted spider mites [2]; [7]", "result": 0, "unit": "%"},
      {"measurement": "mortality at 4 ppm", "setting": "2-spotted spider mites [2]; [7]", "result": 6, "unit": "%"},
      {"measurement": "mortality at 16 ppm", "setting": "2-spotted spider mites [2]; [7]", "result": 50, "unit": "%"},
      {"measurement": "mortality at 0.25 ppm", "setting": "2-spotted spider mites [2]; [8]", "result": 0, "unit": "%"},
      {"measurement": "mortality at 1 ppm", "setting": "2-spotted spider mites [2]; [8]", "result": 0, "unit": "%"},
      {"measurement": "mortality at 4 ppm", "setting": "2-spotted spider mites [2]; [8]", "result": 0, "unit": "%"},
      {"measurement": "mortality at 16 ppm", "setting": "2-spotted spider mites [2]; [8]", "result": 57, "unit": "%"},
      {"measurement": "mortality at 0.25 ppm", "setting": "2-spotted spider mites [2]; [4]", "result": 0, "unit": "%"},
      {"measurement": "mortality at 1 ppm", "setting": "2-spotted spider mites [2]; [4]", "result": 0, "unit": "%"},
      {"measurement": "mortality at 4 ppm", "setting": "2-spotted spider mites [2]; [4]", "result": 15, "unit": "%"},
      {"measurement": "mortality at 16 ppm", "setting": "2-spotted spider mites [2]; [4]", "result": 88, "unit": "%"},
      {"measurement": "mortality at 0.25 ppm", "setting": "2-spotted spider mites [2]; [5]", "result": 0, "unit": "%"},
      {"measurement": "mortality at 1 ppm", "setting": "2-spotted spider mites [2]; [5]", "result": 0, "unit": "%"},
      {"measurement": "mortality at 4 ppm", "setting": "2-spotted spider mites [2]; [5]", "result": 53, "unit": "%"},
      {"measurement": "mortality at 16 ppm", "setting": "2-spotted spider mites [2]; [5]", "result": 100, "unit": "%"},
      {"measurement": "mortality at 0.25 ppm", "setting": "2-spotted spider mites [2]; [6]", "result": 0, "unit": "%"},
      {"measurement": "mortality at 1 ppm", "setting": "2-spotted spider mites [2]; [6]", "result": 0, "unit": "%"},
      {"measurement": "mortality at 4 ppm", "setting": "2-spotted spider mites [2]; [6]", "result": 2, "unit": "%"},
      {"measurement": "mortality at 16 ppm", "setting": "2-spotted spider mites [2]; [6]", "result": 78, "unit": "%"},
      {"measurement": "Percent control", "setting": "citrus rust mites; 0.04 oz ai/100 gal, 7 days after treatment", "result": 14, "unit": "%"},
      {"measurement": "Percent control", "setting": "citrus rust mites; 0.04 oz ai/100 gal, 14 days after treatment", "result": 13, "unit": "%"},
      {"measurement": "Percent control", "setting": "citrus rust mites; 0.2 oz ai/100 gal, 7 days after treatment", "result": 16, "unit": "%"},
      {"measurement": "Percent control", "setting": "citrus rust mites; 0.2 oz ai/100 gal, 14 days after treatment", "result": 18, "unit": "%"}
    ]}
  ]
}
